For assay [1], the system named is phosphorylation of ERK (Thr202/Tyr204). The assay can be described thus: ERK phosphorylation inhibitory effect by Cell ELISA in AsPC-1 cells (Test Example 2). The format is cell-based. As to conditions: Homo sapiens, ASPC1, overnight treatment, Cell ELISA, read-out: IC50 (ERK phosphorylation inhibition). Put shortly: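 AsPC-1 cells (2.0×10^4/well, RPMI 1640 + 10% FBS) treated overnight with compounds (10 points, 10 μM to 0.3 nM final), then glyoxal-fixed and immunostained for phospho-ERK with IRDye 800CW secondary; 800-nm fluorescence read. IC50 by Sigmoid-Emax regression, normalized to DMSO (100%) and 1 μM trametinib (0%).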
For orientation: In an ELISA, binding on a coated surface is turned into a signal by an enzyme label.

Assay [2] deals with human KRAS G12D mutant-positive PK-59 pancreatic cancer cell line-derived xenograft. The assay is described as follows: Anti-tumor activity in PK-59 xenograft mice (Test Example 4). Particulars: 3 mg/kg into tail vein, once a week, twice in total; PK-59 xenograft nude mice. It counts as in vivo. On the procedure:
PK-59 cells (RIKEN BioResearch Center, RCB1901) were cultured using RPMI 1640 medium containing 10% fetal bovine serum in the presence of 5% CO2 at 37° C. The PK-59 cells were collected and suspended in PBS, and after adding an equal amount of Matrigel (from Becton, Dickinson and Company), 4- to 5-week-old male nude mice (BALB/c-nu (nu/nu), from Charles River Laboratories Japan) were subcutaneously inoculated with the cell suspension of 1.0 to 2.0×10^7 cells/mL was subcutaneously inoculated in a volume of 100 μL per mouse. About two weeks after the inoculation, the mice were divided into groups so that all the groups had approximately the same tumor volume and body weight, and administration of test compounds was started on the next day. The study was conducted for 5 mice each of a vehicle group and test compound administration groups. The compounds were dissolved in a solvent containing ethanol (from FUJIFILM Wako Pure Chemical Corporation), a 5% glucose solution (from Otsuka Pharmaceutical), 1M hydrochloric acid (from Kanto Chemical Co., Inc.), 50% (2-hydroxypropyl)-P-cyclodextrin (HP-βCD) solution (from ROQUETTE), HCO-40 (from Nikko Chemicals Co., Ltd.) and 1M sodium hydroxide solution (from Kanto Chemical Co., Inc.) at a liquid amount ratio of 4:84.4:1.1:1:9:0.5. The test compounds dissolved in the respective solvents or the solvents were administered into tail vein. The administration was performed once a week and twice in total. The tumor sizes and the body weights were measured twice a week. The tumor volumes were calculated using the following equation.
[Tumor volume (mm^3)]=[Long diameter of tumor (mm)]×[Short diameter of tumor (mm)]^2×0.5
The tumor growth inhibition rate (%) by the test compounds were calculated with the tumor volumes of the test compound administration groups on the previous day of the start of the administration taken as 100% inhibition and the tumor volumes of the vehicle groups two weeks after the initial administration taken as 0% inhibition. In addition, when the tumor volume of a test compound administration group was smaller than the tumor volume on the previous day of the start of the administration, the tumor regression rate (%) by the test compound was calculated with the tumor volume on the previous day of the start of the administration taken as 0% regression and with the tumor volume 0 taken as 100% regression.

For orientation: IC50 means the concentration needed to halve the response being measured. Regarding `CO[C@@H](C)COc1cc(O[C@H]2CCNC2)c2cc(C3CC3)c(-c3c(C)c(F)cc4[nH]ncc34)c(OCc3ccc(C(=O)N4CCN(Cc5ccc6c(c5)n(C)c(=O)n6C5CCC(=O)NC5=O)C[C@@H]4C)cc3)c2n1` (stereo partly drawn) [Example 12, 3-[5-({(3S)-4-[4-({[6-cyclopropyl-7-(6-fluoro-5-methyl-1H-indazol-4-yl)-2-[(2S)-2-methoxypropoxy]-4-{[(3S)-pyrrolidin-3-yl]oxy}quinolin-8-yl]oxy}methyl)benzoyl]-3-methylpiperazin-1-yl}methyl)-3-methyl-2-oxo-2,3-dihydro-1H-benzimidazol-1-yl]piperidine-2,6-dione], the IC50 in assay [1] came to 16 nM. Further, the “Anti-Tumor Activity Two Weeks After Initial Administration (tumor regression rate)” value in assay [2] was 35% regression.

In the case of `CO[C@@H](C)COc1nc(N2C[C@@H]3C[C@H]2CN3)c2cc(C3CC3)c(-c3c(C)c(F)cc4[nH]ncc34)c(OCc3ccc(C(=O)N4CCN(Cc5ccc6c(c5)n(C)c(=O)n6C5CCC(=O)NC5=O)C[C@@H]4C)cc3)c2n1` (stereo partly drawn) [Example 10, 3-(5-{[(3S)-4-{4-[({(7M)-6-cyclopropyl-4-[(1S,4S)-2,5-diazabicyclo[2.2.1]heptan-2-yl]-7-(6-fluoro-5-methyl-1H-indazol-4-yl)-2-[(2S)-2-methoxypropoxy]quinazolin-8-yl}oxy)methyl]benzoyl}-3-methylpiperazin-1-yl]methyl}-3-methyl-2-oxo-2,3-dihydro-1H-benzimidazol-1-yl)piperidine-2,6-dione], in assay [1], the half-inhibitory concentration (IC50) amounted to 9 nM. In addition, in assay [2], the “Anti-Tumor Activity Two Weeks After Initial Administration (tumor regression rate)” value is reported as 28% regression.

With `CO[C@@H](C)COc1cc(N2C[C@@H]3C[C@H]2CN3)c2cc(C3CC3)c(-c3c(C)c(F)cc4[nH]ncc34)c(OCc3ccc(C(=O)N4CCN(Cc5ccc6c(c5)n(C)c(=O)n6C5CCC(=O)NC5=O)C[C@@H]4C)cc3)c2n1` (stereo partly drawn) [Example 29, 3-(5-{[(3S)-4-{4-[({6-cyclopropyl-4-[(1S,4S)-2,5-diazabicyclo[2.2.1]heptan-2-yl]-7-(6-fluoro-5-methyl-1H-indazol-4-yl)-2-[(2S)-2-methoxypropoxy]quinolin-8-yl}oxy)methyl]benzoyl}-3-methylpiperazin-1-yl]methyl}-3-methyl-2-oxo-2,3-dihydro-1H-benzimidazol-1-yl)piperidine-2,6-dione], the half-maximal inhibitory concentration (IC50) in assay [1] was determined as 24 nM. Also, in assay [2], the “Anti-Tumor Activity Two Weeks After Initial Administration (tumor regression rate)” value is 5% regression.

As to `Cc1c(F)cc2[nH]ncc2c1-c1c(C2CC2)cc2c(N3C[C@@H]4C[C@H]3CN4)nc(OC3CCOCC3)nc2c1OCc1ccc(C(=O)N2CCN(Cc3ccc4c(c3)n(C)c(=O)n4C3CCC(=O)NC3=O)C[C@@H]2C)cc1` (stereo partly drawn) [Example 8, 3-(5-{[(3S)-4-{4-[({(7M)-6-cyclopropyl-4-[(1S,4S)-2,5-diazabicyclo[2.2.1]heptan-2-yl]-7-(6-fluoro-5-methyl-1H-indazol-4-yl)-2-[(oxan-4-yl)oxy]quinazolin-8-yl}oxy)methyl]benzoyl}-3-methylpiperazin-1-yl]methyl}-3-methyl-2-oxo-2,3-dihydro-TH-benzimidazol-1-yl)piperidine-2,6-dione], the IC50 in assay [1] stood at 21 nM. Also, in assay [2], the “Anti-Tumor Activity Two Weeks After Initial Administration (tumor regression rate)” value was found to be 28% regression.
